Data set [1] is described as follows: Octanol-phosphate buffer partition coefficient, log P of the compound after 24 hr. In kind it is physicochemical.
Data set [2] relates to Mus musculus. The data set is described as follows: Neurotoxicity in Mus musculus albino CF1 (mouse) assessed as motor impairment at 300 mg/kg, ip up to 4 hr. In kind it is toxicity, organism-based. The note with it: in vivo. Further details: dose 300 mg/kg, route intraperitoneal.
Data set [3] concerns Mus musculus. Briefly: Neurotoxicity in Mus musculus albino CF1 (mouse) assessed as motor impairment at 100 mg/kg, ip after 4 hr. Type of data set: toxicity, organism-based. Further details: dose 100 mg/kg, route intraperitoneal. The note with it: in vivo.
Data set [4] relates to Mus musculus. Briefly: Neurotoxicity in Mus musculus albino CF1 (mouse) assessed as motor impairment at 100 mg/kg, ip after 2 hr. Further details: dose 100 mg/kg, route intraperitoneal. The note with it: in vivo. In kind it is toxicity, organism-based.
Data set [5] relates to Mus musculus. The data set is described as follows: Neurotoxicity in Mus musculus albino CF1 (mouse) assessed as motor impairment at 100 mg/kg, ip after 1 hr. Type of data set: toxicity, organism-based. Further details: dose 100 mg/kg, route intraperitoneal. Conditions: in vivo.
For data set [6], the system named is Mus musculus. The data set is described as follows: Neurotoxicity in Mus musculus albino CF1 (mouse) assessed as motor impairment at 100 mg/kg, ip after 0.5 hr. In kind it is toxicity, organism-based. Further details: dose 100 mg/kg, route intraperitoneal. The note with it: in vivo.
In data set [7] the test system is Mus musculus. The data set is described as follows: Neurotoxicity in Mus musculus albino CF1 (mouse) assessed as motor impairment at 100 mg/kg, ip after 0.25 hr. Conditions: in vivo. In kind it is toxicity, organism-based. Further details: dose 100 mg/kg, route intraperitoneal.
In data set [8] the test system is Mus musculus. Briefly: Anticonvulsant activity in Mus musculus albino CF1 (mouse) assessed as protection against 6 Hz psychomotor seizure at 100 mg/kg, ip after 4 hr. Type of data set: functional. Conditions: route intraperitoneal.
Data set [9] deals with Mus musculus. The data set is described as follows: Anticonvulsant activity in Mus musculus albino CF1 (mouse) assessed as protection against 6 Hz psychomotor seizure at 100 mg/kg, ip after 2 hr. Type of data set: functional. The note with it: route intraperitoneal.
Data set [10] deals with Mus musculus. Briefly: Anticonvulsant activity in Mus musculus albino CF1 (mouse) assessed as protection against 6 Hz psychomotor seizure at 100 mg/kg, ip after 1 hr. In kind it is functional. Conditions: route intraperitoneal.
Data set [11] deals with Mus musculus. The data set is described as follows: Anticonvulsant activity in Mus musculus albino CF1 (mouse) assessed as protection against 6 Hz psychomotor seizure at 100 mg/kg, ip after 0.5 hr. In kind it is functional. The note with it: route intraperitoneal.
Data set [12] has as its system Mus musculus. The data set is described as follows: Anticonvulsant activity in Mus musculus albino CF1 (mouse) assessed as protection against 6 Hz psychomotor seizure at 100 mg/kg, ip after 0.25 hr. In kind it is functional. The note with it: route intraperitoneal.

Drawing on ChEMBL document CHEMBL3045994, “Design, synthesis, and anticonvulsant evaluation of some novel 1, 3 benzothiazol-2-yl hydrazones/acetohydrazones” (Med Chem Res, 2012), this text covers logP and Activity for 14 compounds.

Usually logP stands for the decadic logarithm of the partition coefficient of the neutral form, usually between octanol and water. In the case of `Fc1ccc(Oc2ccc(/C=N/Nc3nc4ccccc4s3)cc2)cc1`, the logP at 24 h in data set [1] came to 5. The Activity entry with Mus musculus [2] is recorded as “Non-toxic”.

In turn, `O=C(CSc1nc2ccccc2s1)N/N=C1\C(=O)Nc2ccccc21` returned a logP at 24 h in data set [1] of 3.2. Further, the Activity entry with Mus musculus [2], with Mus musculus [3], with Mus musculus [4], in the data set with Mus musculus [5], in the data set with Mus musculus [6] and in the data set on Mus musculus [7] was “Non-toxic” in each case. In addition, the Activity in the data set on Mus musculus [8] was found to be 0%; in the data set on Mus musculus [9] it was 0%; in the data set with Mus musculus [10] it was 0%; with Mus musculus [11], 75%; with Mus musculus [12] it was 0%.

`C(=N\Nc1nc2ccccc2s1)/c1ccc(Oc2ccc3ccccc3c2)cc1` returned a logP at 24 h in data set [1] of 5.6. The Activity result in the data set with Mus musculus [2], with Mus musculus [3], in the data set on Mus musculus [4], in the data set with Mus musculus [5], in the data set on Mus musculus [6] and in the data set on Mus musculus [7] was “Non-toxic” each time. In addition, the Activity in the data set with Mus musculus [8] came to 0%; in the data set on Mus musculus [9] it was 50%; in the data set with Mus musculus [10] it was 25%; in the data set on Mus musculus [11], 0%; in the data set on Mus musculus [12], 25%.

For `C(=N\Nc1nc2ccccc2s1)/c1ccc(Oc2ccc3c(c2)OCO3)cc1`, the lipophilicity (logP) at 24 h in data set [1] amounted to 5. For the same compound, the Activity entry with Mus musculus [2], in the data set on Mus musculus [3], with Mus musculus [4], in the data set with Mus musculus [5], in the data set on Mus musculus [6] and in the data set on Mus musculus [7] was “Non-toxic” each time. In addition, the Activity amounted to 0% with Mus musculus [8]; 0% in the data set on Mus musculus [9]; 0% with Mus musculus [10]; 25% in the data set on Mus musculus [11]; 0% in the data set with Mus musculus [12].

With `O=C1Nc2ccccc2/C1=N/Nc1nc2ccccc2s1`, in [1], the logP at 24 h came to 3.2. Also, the Activity entry with Mus musculus [2], with Mus musculus [3], with Mus musculus [4], with Mus musculus [5], in the data set on Mus musculus [6] and in the data set with Mus musculus [7] was “Non-toxic” in each case. For the same compound, the Activity in the data set on Mus musculus [8] is on record as 0%; with Mus musculus [9] it was 25%; in the data set with Mus musculus [10] it was 25%; with Mus musculus [11], 0%; with Mus musculus [12], 0%.

In data set [1], `O=C(CSc1nc2ccccc2s1)N/N=C/c1ccc(Oc2ccccc2)cc1` had a logP at 24 h of 5.6. The Activity entry with Mus musculus [2], in the data set with Mus musculus [3], in the data set on Mus musculus [4], in the data set on Mus musculus [5], with Mus musculus [6] and with Mus musculus [7] was “Non-toxic” each time. Moreover, the Activity is 0% with Mus musculus [8]; 0% with Mus musculus [9]; 50% with Mus musculus [10]; 25% with Mus musculus [11]; 50% in the data set with Mus musculus [12].

For `O=C(CSc1nc2ccccc2s1)N/N=C/c1ccc(Oc2ccc([N+](=O)[O-])cc2)cc1`, the lipophilicity (logP) at 24 h in data set [1] is 5.3. The Activity result with Mus musculus [2], with Mus musculus [3], in the data set on Mus musculus [4], with Mus musculus [5], with Mus musculus [6] and with Mus musculus [7] was “Non-toxic” in each case. For the same compound, the Activity is 0% in the data set with Mus musculus [8]; 0% in the data set with Mus musculus [9]; 25% in the data set with Mus musculus [10]; 0% with Mus musculus [11]; 0% with Mus musculus [12].

Turning to `Cc1ccc(Oc2ccc(/C=N/NC(=O)CSc3nc4ccccc4s3)cc2)cc1`, the logP at 24 h in data set [1] was 5.7. The Activity result in the data set with Mus musculus [2] was “Non-toxic”.

On to `O=C(CSc1nc2ccccc2s1)N/N=C/c1ccc(Oc2ccc(Cl)cc2)cc1`, for which, in data set [1], the logP at 24 h was 5.6. Also, the Activity result in the data set with Mus musculus [2], in the data set with Mus musculus [3], in the data set on Mus musculus [4], in the data set on Mus musculus [5], in the data set with Mus musculus [6] and with Mus musculus [7] was “Non-toxic” each time. Also, the Activity in the data set on Mus musculus [8] is recorded as 0%; with Mus musculus [9], 25%; in the data set with Mus musculus [10], 75%; in the data set with Mus musculus [11], 0%; in the data set on Mus musculus [12], 0%.

`O=C(CSc1nc2ccccc2s1)N/N=C/c1ccc(Oc2ccc(Br)cc2)cc1` displayed a logP at 24 h in data set [1] of 5.7. Also, the Activity result in the data set on Mus musculus [2], with Mus musculus [3], with Mus musculus [4], in the data set on Mus musculus [5], with Mus musculus [6] and with Mus musculus [7] was “Non-toxic” in each case. In addition, the Activity in the data set with Mus musculus [8] came out at 0%; in the data set on Mus musculus [9] it was 0%; in the data set with Mus musculus [10] it was 75%; with Mus musculus [11], 50%; in the data set with Mus musculus [12], 0%.

Compound `O=C(CSc1nc2ccccc2s1)N/N=C/c1ccc(Oc2ccc(F)cc2)cc1` gave a log partition coefficient (logP) at 24 h in data set [1] of 5.5. Further, the Activity result in the data set with Mus musculus [2], with Mus musculus [3], in the data set with Mus musculus [4], with Mus musculus [5], in the data set on Mus musculus [6] and with Mus musculus [7] was “Non-toxic” in each case. Moreover, the Activity is 0% in the data set on Mus musculus [8]; 0% in the data set on Mus musculus [9]; 0% with Mus musculus [10]; 25% in the data set with Mus musculus [11]; 50% with Mus musculus [12].

`Cc1cc(Oc2ccc(/C=N/NC(=O)CSc3nc4ccccc4s3)cc2)ccc1Cl` displayed a lipophilicity (logP) at 24 h in data set [1] of 5.7. For the same compound, the Activity result in the data set with Mus musculus [2], in the data set with Mus musculus [3], with Mus musculus [4], in the data set with Mus musculus [5], in the data set on Mus musculus [6] and in the data set with Mus musculus [7] was “Non-toxic” in each case. For the same compound, the Activity is 0% in the data set on Mus musculus [8]; 0% in the data set on Mus musculus [9]; 25% in the data set with Mus musculus [10]; 25% in the data set with Mus musculus [11]; 0% with Mus musculus [12].

On to `O=C(CSc1nc2ccccc2s1)N/N=C/c1ccc(Oc2ccc3ccccc3c2)cc1`, for which the logP at 24 h in data set [1] was determined as 5.9. The Activity entry with Mus musculus [2], in the data set with Mus musculus [3], in the data set with Mus musculus [4], with Mus musculus [5], in the data set on Mus musculus [6] and in the data set with Mus musculus [7] was “Non-toxic” in each case. Further, the Activity with Mus musculus [8] came out at 0%; with Mus musculus [9], 0%; with Mus musculus [10] it was 0%; with Mus musculus [11], 25%; with Mus musculus [12], 0%.

The compound `O=C(CSc1nc2ccccc2s1)N/N=C/c1ccc(Oc2ccc3c(c2)OCO3)cc1` showed a logP at 24 h in data set [1] of 5.5. Besides, the Activity result in the data set with Mus musculus [2] was “Non-toxic”.
